Test results taken from patent publication US9115122B2, “Non-ATP dependent inhibitors of extracellular signal-regulated kinase (ERK)” (UNIVERSITY OF MARYLAND, BALTIMORE, priority 2012, dated 2015).

What was measured:
Assay in all cases: Cell proliferation WST-1 assay, single dose (Example 4)
Assay type in all cases: cell-based
Settings in all cases: 100 μM, 48 hours
[1] = system: Jurkat T-cell leukemia cells
Description: (§1) In addition, compounds were tested in RPMI-7951 cells, which also contain mutated BRaf and are resistant to BRaf inhibitors due to the overexpression of MAP3K8 (the gene encoding COT/Tp12) that provides an alternative mechanism to indirectly or directly activate ERK proteins. […] For comparison, HeLa cervical carcinoma and Jurkat T-cell leukemia cells, which are p53 defective cancer cell lines but contain no known activating mutations in the ERK pathway, were studied. […] Cell proliferation was evaluated by water soluble tetrazolium-1 (WST-1) assay as previously described. Briefly, cells (˜5000/well) were seeded in 96 well plates, allowed to recover for 16-20 hours, and then treated with the indicated test compound for 48 hours. After incubation, WST-1 reagent was added and absorbance was read at 450 nm with background subtraction taken at 650 nm. Values were normalized to the control (DMSO only treated) cells.

RPMI-7951 melanoma cells = system: RPMI-7951 melanoma cells
Description: as §1

A375 melanoma cells = system: A375 melanoma cells
Description: as §1

[2] = system: HeLa cervical carcinoma cells
Description: as §1

SK-MEL-28 melanoma cells = system: SK-MEL-28 melanoma cells
Description: as §1

HL-60 leukemic cells = system: HL-60 leukemic cells
Description: as §1

Compound | Cell Viability (% of Vehicle) Jurkat [1] | Cell Viability (% of Vehicle) RPMI-7951 (RPMI-7951 melanoma cells) | Cell Viability (% of Vehicle) A375 (A375 melanoma cells) | Cell Viability (% of Vehicle) HeLa [2] | Cell Viability (% of Vehicle) SK-MEL-28 (SK-MEL-28 melanoma cells) | Cell Viability (% of Vehicle) HL-60 (HL-60 leukemic cells)
CCOc1ccc(/C=C2\SC(=O)NC2=O)cc1 [Compound 2, (Z)-5-(4-ethoxybenzylidene)thiazolidine-2,4-dione] | 104 ± 4 % of Vehicle | 144 ± 2 % of Vehicle | 110 ± 10 % of Vehicle | 98 ± 13 % of Vehicle | 103 ± 1 % of Vehicle | 103 ± 16 % of Vehicle
CCOc1ccc(CC2SC(=O)N(CCN)C2=O)cc1 (stereo not drawn) [Compound 6, 3-(2-aminoethyl)-5-(4-ethoxybenzyl)thiazolidine-2,4-dione] | 108 ± 10 % of Vehicle | 70 ± 5 % of Vehicle | 92 ± 6 % of Vehicle | 90 ± 4 % of Vehicle | 88 ± 3 % of Vehicle | 41 ± 17 % of Vehicle
CCOc1ccc(/C=C2\SC(=S)N(CCN)C2=O)cc1 [Compound 9, (Z)-3-(2-aminoethyl)-5-(4-ethoxybenzylidene)-2-thioxothiazolidin-4-one] | 52 ± 4 % of Vehicle | 3.3 ± 2 % of Vehicle | 21 ± 10 % of Vehicle | 26 ± 6 % of Vehicle | 45 ± 7 % of Vehicle | 7.9 ± 3 % of Vehicle
CCOc1ccc(/C=C2\CC(=O)N(CCN)C2=O)cc1 [Compound 13, (E)-1-(2-aminoethyl)-3-(4-ethoxybenzylidene)pyrrolidine-2,5-dione] | 100 ± 10 % of Vehicle | 19 ± 5 % of Vehicle | 29 ± 3 % of Vehicle | 75 ± 2 % of Vehicle | 65 ± 4 % of Vehicle | 58 ± 28 % of Vehicle
CCOc1ccc(/C=C2\CCN(CCN)C2=O)cc1 [Compound 17, (E)-1-(2-aminoethyl)-3-(4-ethoxybenzylidene)pyrrolidin-2-one] | 92 ± 2 % of Vehicle | 96 ± 3 % of Vehicle | 95 ± 2 % of Vehicle | 89 ± 4 % of Vehicle | 79 ± 6 % of Vehicle | 73 ± 9 % of Vehicle
CCOc1ccc(/C=C/C(=O)NCCN)cc1 [Compound 20, (E)-N-(2-aminoethyl)-3-(4-ethoxyphenyl)acrylamide] | 89 ± 7 % of Vehicle | 93 ± 9 % of Vehicle | 81 ± 5 % of Vehicle | 94 ± 5 % of Vehicle | 83 ± 4 % of Vehicle | 59 ± 25 % of Vehicle
CCOc1ccc(/C=C2\SC(=O)N(CC(C)N)C2=O)cc1 (stereo not drawn) [Compound 22b, (Z)-3-(2-aminopropyl)-5-(4-ethoxybenzylidene)thiazolidine-2,4-dione] | 58 ± 10 % of Vehicle | 16 ± 1 % of Vehicle | 25 ± 4 % of Vehicle | 49 ± 7 % of Vehicle | 32 ± 4 % of Vehicle | 7.3 ± 3 % of Vehicle
CCOc1ccc(/C=C2\SC(=O)N(C(C)CN)C2=O)cc1 (stereo not drawn) [Compound 22c, (Z)-3-(1-aminopropan-2-yl)-5-(4-ethoxybenzylidene)thiazolidine-2,4-dione] | 54 ± 10 % of Vehicle | 22 ± 3 % of Vehicle | 13 ± 2 % of Vehicle | 45 ± 7 % of Vehicle | 28 ± 4 % of Vehicle | 8.1 ± 3 % of Vehicle
CCOc1ccc(/C=C2\SC(=O)N(C[C@H](N)C(=O)OC)C2=O)cc1 [Compound 22d, (S,Z)-methyl 2-amino-3-(5-(4-ethoxybenzylidene)-2,4-dioxothiazolidin-3-yl)propanoate] | 100 ± 5 % of Vehicle | 1.8 ± 0.1 % of Vehicle | 41 ± 11 % of Vehicle | 87 ± 4 % of Vehicle | 33 ± 9 % of Vehicle | 25 ± 5 % of Vehicle
CCOc1ccc(/C=C2\SC(=O)N(C(CN)CN)C2=O)cc1 [Compound 22e, (Z)-3-(1,3-diaminopropan-2-yl)-5-(4-ethoxybenzylidene)thiazolidine-2,4-dione] | 81 ± 9 % of Vehicle | 25 ± 3 % of Vehicle | 19 ± 4 % of Vehicle | 62 ± 2 % of Vehicle | 32 ± 2 % of Vehicle | 11 ± 4 % of Vehicle
CCOc1ccc(/C=C2\SC(=O)N(CCNC)C2=O)cc1 [Compound 23a, (Z)-5-(4-ethoxybenzylidene)-3-(2-(methylamino)ethyl)thiazolidine-2,4-dione] | 83 ± 6 % of Vehicle | 54 ± 7 % of Vehicle | 95 ± 2 % of Vehicle | 85 ± 4 % of Vehicle | 91 ± 1 % of Vehicle | 17 ± 11 % of Vehicle
CCNCCN1C(=O)S/C(=C\c2ccc(OCC)cc2)C1=O [Compound 23b, (Z)-5-(4-ethoxybenzylidene)-3-(2-(ethylamino)ethyl)thiazolidine-2,4-dione] | 69 ± 10 % of Vehicle | 60 ± 4 % of Vehicle | 51 ± 4 % of Vehicle | 81 ± 2 % of Vehicle | 63 ± 10 % of Vehicle | 14 ± 4 % of Vehicle
CCOc1ccc(/C=C2\SC(=O)N(CCNCC(C)C)C2=O)cc1 [Compound 23c, (Z)-5-(4-ethoxybenzylidene)-3-(2-(isobutylamino)ethyl)thiazolidine-2,4-dione] | 2.5 ± 0.1 % of Vehicle | 1.0 ± 0.1 % of Vehicle | 1.0 ± 0.1 % of Vehicle | 3.7 ± 0.4 % of Vehicle | 1.3 ± 0.1 % of Vehicle | 10 ± 4 % of Vehicle
CCOc1ccc(/C=C2\SC(=O)N(CCNCc3ccccc3)C2=O)cc1 [Compound 23d, (Z)-3-(2-(benzylamino)ethyl)-5-(4-ethoxybenzylidene)thiazolidine-2,4-dione] | 89 ± 4 % of Vehicle | 2.5 ± 0.3 % of Vehicle | 13 ± 1 % of Vehicle | 37 ± 1 % of Vehicle | 25 ± 6 % of Vehicle | 5.0 ± 2 % of Vehicle
CCOc1ccc(/C=C2\SC(=O)N(CCNCc3ccc(C#N)cc3)C2=O)cc1 [Compound 23e, (Z)-4-(((2-(5-(4-ethoxybenzylidene)-2,4-dioxothiazolidin-3-yl)ethyl)amino)methyl)benzonitrile] | 98 ± 5 % of Vehicle | 96 ± 5 % of Vehicle | 89 ± 3 % of Vehicle | 88 ± 2 % of Vehicle | 96 ± 6 % of Vehicle | 75 ± 25 % of Vehicle
